Laboratory results: article PMC9573943, “Contribution of the 12–17 hydrophobic region of islet amyloid polypeptide in self-assembly and cytotoxicity” (Frontiers in Molecular Biosciences, 2022)
Bridge positions count the residues as written; N and C are the ends. Ends that are not written are not given here.

Experiments:
[1] = Kinetics of amyloid formation monitored by ThT fluorescence; format: physicochemical; conditions: 25 μM peptide, 40 μM ThT, 20 mM Tris-HCl pH 7.4, 25°C, no agitation, nonbinding surface 96-well plate, read every 10 min, lag time = T50 - 2/k, mean ± S.D. of at least six assays
Procedure: Aggregation mixtures were prepared by dissolving the lyophilized peptide at a concentration of 50 μM in 20 mM Tris-HCl, pH 7.4. Assays were performed at 25°C without stirring in sealed black-wall clear-bottom 96-well nonbinding surface plates with 100 μL/well. Final peptide concentrations were 12.5 and 25 μM, and thioflavin T (ThT) concentration was fixed at 40 μM. Fluorescence was measured every 10 min (excitation: 440 nm, emission: 485 nm) and data from triplicate wells were averaged, corrected by subtracting the blank control, and plotted as ThT fluorescence vs. time. Data were normalized with maximum ThT fluorescence intensity obtained for unmodified IAPP. Data were fitted to a sigmoidal Boltzmann model: Y=Yo+(Ymax−Yo)/1+e^−(T−T50)/ K where T 50 is the time required to reach half of the maximum fluorescence intensity, k is the apparent first-order constant, and Y max and Y 0 are the maximum and initial ThT fluorescence values. Lag time corresponds to T50 - 2/k. Data of at least six assays performed with different peptide lots were averaged and expressed as the mean ± S.D. Statistical analysis was performed using Student’s t test, and statistically significant difference between IAPP and analogs was established at (*) p < 0.05; (**) p < 0.005; (***) p < 0.0005.

[2] = Peptide self-assembly under fully quiescent conditions (CD, ThT and ANS fluorescence, TEM, AFM); format: physicochemical; conditions: 50 μM peptide; for Assemblies observed by TEM after 48 h incubation: negative stain TEM; for ThT fluorescence of incubated peptide, in words: diluted to 25 μM with 40 μM ThT; for Incubation time at which the random coil to β-sheet conformational transition is seen (far-UV CD) / Secondary conformation / conformational transition over incubation (far-UV CD), in words: fully quiescent; for Incubation time at which the random coil to β-sheet conformational transition is seen (far-UV CD): microtubes, diluted to 25 μM for CD; for Secondary conformation / conformational transition over incubation (far-UV CD), in words: up to 7 days
Procedure: Solutions were prepared by dissolving the peptide at a concentration of 50 μM in 20 mM Tris-HCl, pH 7.4, and were incubated at room temperature without agitation in 1.5 ml Eppendorf microtubes. For IAPP12-17, the lyophilized peptide was dissolved in 20 mM acetate pH 6.5 in the presence of 3% DMSO, or HFIP, at a final concentration of 500 μM and the peptide solution was incubated at 37 °C under constant rotational agitation.
At the indicating time of incubation, peptide solutions were diluted to 25 μM in presence of 40 μM ThT, or 25 μM 8-anilino-1-naphthalenesulfonic acid (ANS). Fluorescence was measured in 10-mm pathlength microcells using a PTI QuantaMaster spectrofluorometer. For ThT, excitation was set at 440 nm, and the emission spectrum from 450 to 550 nm was recorded. For ANS, the excitation was set at 355 nm, and the emission scan was recorded from 385 to 585 nm.
After incubation, peptide solutions were diluted in water to 25 μM and incorporated into a 2-mm path length quartz cell. For IAPP12-17, the solution was diluted to 150 μM. Far-UV CD spectra were recorded from 190 to 260 nm using a Jasco J-815 CD spectropolarimeter at 25°C. The wavelength step was set at 0.5 nm with an average time of 10 s per scan at each wavelength. Spectra were background-subtracted with buffer solution. Raw data were converted to mean residue ellipticity (MRE): MRE=Mean residue weight (g/mol)X CD signal (deg)/10 X pathlength (cm) X peptide concentration (g/mL)
After incubation, peptide solutions were diluted to 10 μM, or 100 μΜ for IAPP12-17, before being applied on glow-discharged carbon films on 300-mesh copper grids. Samples were adsorbed and negatively stained with 1.5% uranyl formate for 45 s. Images were recorded using a FEI Tecnai G2 Spirit Twin microscope operating at 120 kV and equipped with a Gatan Ultrascan scan 4,000 4k × 4k CCD camera system.
After incubation, peptide solutions were diluted in 1% acetic acid to a concentration of 7.5 μΜ. […] Images were recorded using Veeco/Bruker multimode AFM instrument using ScanAsyst-air mode with a silicon tip (2–12 nm tip radius, 0.4 N/m force) on a nitride lever. Images were taken at 0.977 Hz and 512 scan/min.

[3] = Lipid membrane leakage (calcein-loaded LUVs); conditions: 25 μM peptide, 500 μM phospholipids; for Maximum membrane leakage (calcein fluorescence, % of that with Triton X-100): LUVs DOPC:DOPG 9:1, 20 mM Tris-HCl, 150 mM NaCl, pH 7.4, read every 10 min over 24 h, IAPP value reached after 10 h, at least four assays
Procedure: Large unilamellar vesicles (LUVs) were assembled from 1,2-Dioleoyl-sn-glycero-3-phosphocholine (DOPC) and 2-dioleoyl-sn-glycero-3-phospho-(1′-rac-glycerol) (DOPG) at a 9:1 M ratio (DOPC:DOPG). Lipids were solubilized in 100% chloroform, which was then evaporated. […] The lipid mixture was freeze-thawed five times before being extruded through a 100 nm membrane for 20 cycles. Nonencapsulated calcein was removed by gel filtration using a Sephadex G25 fine resin and 20 mM Tris-HCl, 150 mM NaCl, pH 7.4, as elution buffer. Final lipid concentration was determined by a colorimetric assay ([Babych et al., 2021]). Lyophilized peptides were solubilized in 20 mM Tris-HCl, 150 mM NaCl, pH 7.4, at 50 μM prior to dilution into calcein-LUVs, to reach 25 μM peptide and 500 μM phospholipids. Fluorescence was monitored in sealed black-wall, clear-bottom 96-well non-binding surface plates with 100 μL/well. […] 100% leakage (Fmax) was determined with 0.2% Triton X-100 and LUV leakage was reported using:
Membrane leakage (%) = (F−F baseline)/(F max−F baseline)
Data of at least four assays with different peptide lots were averaged and expressed as the mean ± S.D. Statistical analysis was performed using Student’s t test, and statistically significant difference was established at (*) p < 0.05; (**) p < 0.005; (***) p < 0.0005.

INS-1E cells [4] = experiment: Cell viability by resazurin reduction; format: cell-based, Rat; conditions: 24 h, at least five assays; for Cell viability: 50 μM freshly dissolved peptide, relative to vehicle-treated cells; for Cytotoxicity compared with unmodified IAPP, in words: freshly dissolved peptide up to 50 μM
Procedure: (§1) Rat INS-1E cells were cultured in treated black-wall clear-bottom 96-well plates at a density of 25,000 cell/well in RPMI-1640 medium supplemented with 10% FBS, 2 mM L-glutamine, 100 U/ml penicillin, 100 μg/ml streptomycin, 10 mM HEPES, 1 mM sodium pyruvate and 50 μM β-mercaptoethanol. After 48 h of incubation at 37°C in 5% CO2, cells were treated with 50 μL of peptide freshly dissolved in 20 mM Tris-HCl, pH 7.4. […] Cell viability (%) was calculated from the ratio of the fluorescence of the treated cells to the vehicle-treated cells. Data of at least five assays performed with different peptide lots were averaged and expressed as the mean ± S.D. Statistical analysis was performed using Student’s t test, and statistically significant difference was established at (*) p < 0.05; (**) p < 0.005; (***) p < 0.0005. For Live/Dead viability assay, cells were plated in 12-well plates at density of 250,000 cell/well for 48 h before treatment with 25 μM peptide.

INS-1E cells [5] = experiment: Live/Dead viability assay (calcein-AM / ethidium homodimer-1, fluorescence microscopy); format: cell-based, Rat; conditions: 25 μM freshly solubilized peptide, 24 h, calcein-AM (green, live) and ethidium homodimer-1 (red, dead)
Procedure: as §1

[6] = 20 mM Tris-HCl pH 7.4, quiescent
[7] = 20 mM Tris-HCl pH 7.4, room temperature

Compound	Lag time of amyloid formation [1] [h]	Assemblies observed by TEM after 48 h incubation [2, 6]	ThT fluorescence of incubated peptide, in words [2, 6]	Incubation time at which the random coil to β-sheet conformational transition is seen (far-UV CD) [2, 7] [h]	Maximum membrane leakage (calcein fluorescence, % of that with Triton X-100) [3] [%]	Incubation time at which membrane leakage starts ([3]; LUVs DOPC:DOPG 9:1, pH 7.4) [h]	Cell viability (INS-1E cells [4])	Cytotoxicity compared with unmodified IAPP, in words (INS-1E cells [4])	Cell death in Live/Dead assay, in words (INS-1E cells [5])	ANS fluorescence of incubated peptide, in words ([2]; 20 mM Tris-HCl pH 7.4, quiescent, diluted to 25 μM with 25 μM ANS)	Secondary conformation / conformational transition over incubation (far-UV CD), in words [2, 7]	Assemblies observed by AFM after 24 h incubation ([2]; 20 mM Tris-HCl pH 7.4, room temperature, no agitation, 24 h)
CC[C@H](C)[C@H](NC(=O)[C@H](C)NC(=O)CNC(=O)[C@H](Cc1ccccc1)NC(=O)[C@H](CC(N)=O)NC(=O)[C@H](CC(N)=O)NC(=O)[C@H](CO)NC(=O)[C@H](CO)NC(=O)[C@H](Cc1c[nH]cn1)NC(=O)[C@@H](NC(=O)[C@H](CC(C)C)NC(=O)[C@H](Cc1ccccc1)NC(=O)[C@H](CC(N)=O)NC(=O)[C@H](C)NC(=O)[C@H](CC(C)C)NC(=O)[C@H](CCCNC(=N)N)NC(=O)[C@H](CCC(N)=O)NC(=O)[C@@H](NC(=O)[C@H](C)NC(=O)[C@@H]1CSSC[C@H](NC(=O)[C@@H](N)CCCCN)C(=O)N[C@@H](CC(N)=O)C(=O)N[C@@H]([C@@H](C)O)C(=O)N[C@@H](C)C(=O)N[C@@H]([C@@H](C)O)C(=O)N1)[C@@H](C)O)C(C)C)C(=O)N[C@@H](CC(C)C)C(=O)N[C@@H](CO)C(=O)N[C@@H](CO)C(=O)N[C@H](C(=O)N[C@@H](CC(N)=O)C(=O)N[C@H](C(=O)NCC(=O)N[C@@H](CO)C(=O)N[C@@H](CC(N)=O)C(=O)N[C@H](C(=O)N[C@@H](Cc1ccc(O)cc1)C(N)=O)[C@@H](C)O)C(C)C)[C@@H](C)O [IAPP, islet amyloid polypeptide]	3.9 ± 1.2	prototypical fibrils	increase of ThT and ANS fluorescence	24	17	5	less than 10%	concentration-dependent decrease of metabolic activity	sharp increase in the number of red cells and a decrease of green cells			
CC[C@H](C)[C@H](NC(=O)[C@H](C)NC(=O)CNC(=O)[C@H](Cc1ccccc1)NC(=O)[C@H](CC(N)=O)NC(=O)[C@H](CC(N)=O)NC(=O)[C@H](CO)NC(=O)[C@H](CO)NC(=O)[C@H](Cc1c[nH]cn1)NC(=O)[C@@H](NC(=O)[C@H](CC(C)C)NC(=O)[C@H](Cc1ccccc1)NC(=O)[C@H](C)NC(=O)[C@H](C)NC(=O)[C@H](CC(C)C)NC(=O)[C@H](CCCNC(=N)N)NC(=O)[C@H](CCC(N)=O)NC(=O)[C@@H](NC(=O)[C@H](C)NC(=O)[C@@H]1CSSC[C@H](NC(=O)[C@@H](N)CCCCN)C(=O)N[C@@H](CC(N)=O)C(=O)N[C@@H]([C@@H](C)O)C(=O)N[C@@H](C)C(=O)N[C@@H]([C@@H](C)O)C(=O)N1)[C@@H](C)O)C(C)C)C(=O)N[C@@H](CC(C)C)C(=O)N[C@@H](CO)C(=O)N[C@@H](CO)C(=O)N[C@H](C(=O)N[C@@H](CC(N)=O)C(=O)N[C@H](C(=O)NCC(=O)N[C@@H](CO)C(=O)N[C@@H](CC(N)=O)C(=O)N[C@H](C(=O)N[C@@H](Cc1ccc(O)cc1)C(N)=O)[C@@H](C)O)C(C)C)[C@@H](C)O [N14A]		dense network of thin fibrils	low ThT fluorescence	48	50		50%	reduced IAPP toxicity	decreased toxicity compared to unmodified IAPP	high ANS signal	helical-like conformation with two minima at 206 and 222 nm between 2 and 24 h incubation	only poorly defined fibrils
V17A: full-length IAPP with Val17 substituted by Ala (KCNTATCATQRLANFLAHSSNNFGAILSSTNVGSNTY; disulfide 2-7; ends not checked; UniProt P10997 34-70, looked up, variant V17A)		short and poorly defined fibrils	low ThT and ANS binding properties		34			reduced IAPP toxicity	decreased toxicity compared to unmodified IAPP		delayed the conformational transition	
